Reference: US20200338045A1, “ISOINDOLINE COMPOSITIONS AND METHODS FOR TREATING NEURODEGENERATIVE DISEASE” (priority 2017, published 2020)

Experiments:
CYP isoenzymes = assay: Drug interaction studies
plasma proteins = assay: LC/MSMS protein expression in plasma (COG0102); assay type: in vivo, human
Description: Plasma and CSF protein expression were measured by LC/MSMS in samples drawn prior to dosing (Day 0) and at end of dosing (Day 28) and were compared within each patient and between dosing groups.
This trial (ClinicalTrials.gov NCT02907567) was a randomized, double-blind, placebo-controlled clinical trial in mild to moderate Alzheimer's patients (MMSE 18-26) (See FIG. 1 for clinical trial design). The trial was conducted at six sites in Australia. Patients were randomized into placebo (n=5) or CT1812-treated groups: 90 mg (n=4), 280 mg (n=5) or 560 mg (n=5) and treated once daily for 28 days. Clinical chemistry was done at Sydpath (Sydney, AU). Pharmacokinetics were done at CPR Pharma Services (Adelaide, AU). Cerebrospinal fluid samples were taken at screening and day 21-28 of treatment and aliquoted. Plasma samples were taken at screening or Day 1 (one sample) and day 14-28, then spun down to separate plasma and aliquoted. One set of CSF samples was analyzed for Alzheimer's disease biomarkers; protein measurements (Aβ42, A1340, total tau, tau phosphorylated at threonine 181 (phosphorylated tau), NFL and neurogranin) were performed using commercially available ELISA assays from Fujirebio according to the manufacturer's instructions (INNOTEST β-AMYLOID(1-42), INNOTEST β-AMYLOID(1-40), INNOTEST hTau Ag, INNOTEST PHOSPHO-TAU(181P), Uman Diagnostics NFL assay). Neurogranin was measured with a sandwich ELISA method using antibodies Ng2 and Ng22 developed at the University of Gotteborg (Kvartsberg et al. 2015). Identical aliquots of CSF, and plasma were analyzed for protein expression changes via LC/MSMS at Caprion (see below).
Matched screening and day 28 plasma and CSF samples were analyzed by LC/MSMS at Caprion Biosciences Inc. Plasma was depleted of high and medium abundance proteins using a commercial immunoaffinity column, IgY14-Supermix (Sigma). CSF was depleted of only 14 high abundance proteins using MARS-14 (Agilent). All samples were digested with trypsin and plasma samples were fractionated by strong cation exchange chromatography (3 fractions). Both CSF and plasma samples were analyzed using a NanoAcquity UPLC coupled to a Q Exactive MS. […] The 12 most intense peaks per survey scan with charge states 2-8 fragmented and scanned with a mass range from 200 to 2000 m/z at a resolution of 17,500. Raw spectrometer data files for each LC-MS run were aligned independently using Elucidator software (Rosetta Biosoftware). The MS/MS spectra were matched to corresponding peptide sequences found in the Uniprot Human protein database (January 2017) using Mascot software, allowing for up to 2 missed cleavages, a peptide tolerance of 20 ppm, and an MS/MS tolerance of 0.05 Da. Outlier detection was performed by determining the average log-intensity of all isotope groups (IG) over injection order for all samples. Samples with an average value greater than 2 standard deviations from the mean were flagged for investigation. Following data transformation and normalization, expression analysis of the identified isotope groups was performed and the statistical significance of each comparison was assessed with a parametric, linear mixed model (LMM) and a non-parametric Wilcoxon ranked test (ranked p-values). Expression analysis was also performed at the peptide and protein levels, which used the same methodology as above, but applied to peptide/protein intensities, derived by rolling-up the corresponding isotope group intensities. Isotope groups not detected in at least half of the samples in either of the two groups being compared were not used for the roll-up.

[1] = plasma, treated group vs baseline

`CC(C)(C)Oc1cc(CCC(C)(C)N2Cc3ccc(S(C)(=O)=O)cc3C2)ccc1O` [CT1812] was tested, and the “interactions with CYP isoenzymes” value (CYP isoenzymes) was “minor interactions”, the “Sema3F, % change treated vs placebo” value (plasma proteins; CSF & Plasma) was 47% and the “Sema3F, With CT1812” value (plasma proteins; CSF & Plasma, direction of change) was “significantly increased and ↑*”. The “Sema3F, % change baseline treated” value (plasma proteins; CSF & Plasma, treated group vs baseline) was 10%, the “ACOX1, % change treated vs placebo” value (plasma proteins; plasma) was 42% and the “ANXA1, % change treated vs placebo” value (plasma proteins; plasma) was −61%. The “ANXA2, % change treated vs placebo” value (plasma proteins; plasma) was −54%, the “AZGP1, % change treated vs placebo” value (plasma proteins; plasma) was 28% and the “B4GALT1, % change treated vs placebo” value (plasma proteins; plasma) was 36%. The “C4BPA, % change treated vs placebo” value (plasma proteins; plasma) was 44%, the “CFH, % change treated vs placebo” value (plasma proteins; plasma) was 20% and the “Cathepsin S, % change treated vs placebo” value (plasma proteins; plasma) was 58%. The “Clusterin, % change treated vs placebo” value (plasma proteins; plasma) was 17%, the “FUT11, % change treated vs placebo” value (plasma proteins; plasma) was 39% and the “GALT6, % change treated vs placebo” value (plasma proteins; plasma) was 33%. For the same compound, the “GPR116, % change treated vs placebo” value (plasma proteins; plasma) was 27%, the “GXYLT1, % change treated vs placebo” value (plasma proteins; plasma) was 82% and the “HINT1, % change treated vs placebo” value (plasma proteins; plasma) was −131%. The “HMGB1, % change treated vs placebo” value (plasma proteins; plasma) was −315%, the “HRG, % change treated vs placebo” value (plasma proteins; plasma) was 61% and the “Hex A, % change treated vs placebo” value (plasma proteins; plasma) was 34%. The “Hex B, % change treated vs placebo” value (plasma proteins; plasma) was 36%, the “LCAT, % change treated vs placebo” value (plasma proteins; plasma) was 17% and the “NRP2, % change treated vs placebo” value (plasma proteins; plasma) was 46%. For the same compound, the “Neprilysin, % change treated vs placebo” value (plasma proteins; plasma) was 4717%, the “PCK2, % change treated vs placebo” value (plasma proteins; plasma) was 74% and the “POMGNT1, % change treated vs placebo” value (plasma proteins; plasma) was 41%. For the same compound, the “PRDX6, % change treated vs placebo” value (plasma proteins; plasma) was −130%, the “SERPING1, % change treated vs placebo” value (plasma proteins; plasma) was 24% and the “ST3GAL1, % change treated vs placebo” value (plasma proteins; plasma) was 31%. The “SUMO3, % change treated vs placebo” value (plasma proteins; plasma) was −77%, the “TRIM35, % change treated vs placebo” value (plasma proteins; plasma) was 99% and the “TXN, % change treated vs placebo” value (plasma proteins; plasma) was −98%. The “WDR81, % change treated vs placebo” value (plasma proteins; plasma) was 142%, the “ACOX1, With CT1812” value (plasma proteins; plasma, direction of change) was “↑*” and the “ANXA1, With CT1812” value (plasma proteins; plasma, direction of change) was “significantly reduced and ↓*”. The “ANXA2, With CT1812” value (plasma proteins; plasma, direction of change) was “↓*”, the “AZGP1, With CT1812” value (plasma proteins; plasma, direction of change) was “↑*” and the “B4GALT1, With CT1812” value (plasma proteins; plasma, direction of change) was “↑*”. For the same compound, the “C4BPA, With CT1812” value (plasma proteins; plasma, direction of change) was “significantly increased and ↑*”, the “CFH, With CT1812” value (plasma proteins; plasma, direction of change) was “↑*” and the “Cathepsin S, With CT1812” value (plasma proteins; plasma, direction of change) was “significantly increase and ↑*”. The “Clusterin, With CT1812” value (plasma proteins; plasma, direction of change) was “increased and ↑”, the “FUT11, With CT1812” value (plasma proteins; plasma, direction of change) was “↑*” and the “GALT6, With CT1812” value (plasma proteins; plasma, direction of change) was “↑*”. For the same compound, the “GPR116, With CT1812” value (plasma proteins; plasma, direction of change) was “↑”, the “GXYLT1, With CT1812” value (plasma proteins; plasma, direction of change) was “significantly increased and ↑*” and the “HINT1, With CT1812” value (plasma proteins; plasma, direction of change) was “significantly reduced and ↓*”. The “HMGB1, With CT1812” value (plasma proteins; plasma, direction of change) was “significantly reduced and ↓*”, the “HRG, With CT1812” value (plasma proteins; plasma, direction of change) was “significantly increased and ↑*” and the “Hex A, With CT1812” value (plasma proteins; plasma, direction of change) was “significantly increased and ↑*”. For the same compound, the “Hex B, With CT1812” value (plasma proteins; plasma, direction of change) was “significantly increased and ↑*”, the “LCAT, With CT1812” value (plasma proteins; plasma, direction of change) was “↑” and the “NRP2, With CT1812” value (plasma proteins; plasma, direction of change) was “↑*”. The “Neprilysin, With CT1812” value (plasma proteins; plasma, direction of change) was “↑*”, the “PCK2, With CT1812” value (plasma proteins; plasma, direction of change) was “↑” and the “POMGNT1, With CT1812” value (plasma proteins; plasma, direction of change) was “↑*”. The “PRDX6, With CT1812” value (plasma proteins; plasma, direction of change) was “↓*”, the “SERPING1, With CT1812” value (plasma proteins; plasma, direction of change) was “significantly increased and ↑*” and the “ST3GAL1, With CT1812” value (plasma proteins; plasma, direction of change) was “↑*”. For the same compound, the “SUMO3, With CT1812” value (plasma proteins; plasma, direction of change) was “↓*”, the “TRIM35, With CT1812” value (plasma proteins; plasma, direction of change) was “↑*” and the “TXN, With CT1812” value (plasma proteins; plasma, direction of change) was “significantly reduced and ↓*”. The “WDR81, With CT1812” value (plasma proteins; plasma, direction of change) was “significantly increased and ↑*”, the “GALT6, With CT1812” value (plasma proteins; plasma, direction of change, listed as CT-1812) was “significantly increased” and the “ACOX1, % change baseline treated” value (plasma proteins; [1]) was 10%. The “ANXA1, % change baseline treated” value (plasma proteins; [1]) was −18%, the “ANXA2, % change baseline treated” value (plasma proteins; [1]) was −20% and the “AZGP1, % change baseline treated” value (plasma proteins; [1]) was 5%. For the same compound, the “B4GALT1, % change baseline treated” value (plasma proteins; [1]) was 16%, the “C4BPA, % change baseline treated” value (plasma proteins; [1]) was 21% and the “CFH, % change baseline treated” value (plasma proteins; [1]) was 6%. The “Cathepsin S, % change baseline treated” value (plasma proteins; [1]) was 27%, the “Clusterin, % change baseline treated” value (plasma proteins; [1]) was 4% and the “FUT11, % change baseline treated” value (plasma proteins; [1]) was 18%. For the same compound, the “GALT6, % change baseline treated” value (plasma proteins; [1]) was 15%, the “GPR116, % change baseline treated” value (plasma proteins; [1]) was 9% and the “GXYLT1, % change baseline treated” value (plasma proteins; [1]) was 38%. For the same compound, the “HINT1, % change baseline treated” value (plasma proteins; [1]) was −43%, the “HMGB1, % change baseline treated” value (plasma proteins; [1]) was −67% and the “HRG, % change baseline treated” value (plasma proteins; [1]) was 10%. For the same compound, the “Hex A, % change baseline treated” value (plasma proteins; [1]) was 13%, the “Hex B, % change baseline treated” value (plasma proteins; [1]) was 19% and the “LCAT, % change baseline treated” value (plasma proteins; [1]) was 6%. For the same compound, the “NRP2, % change baseline treated” value (plasma proteins; [1]) was 10%, the “Neprilysin, % change baseline treated” value (plasma proteins; [1]) was 48% and the “PCK2, % change baseline treated” value (plasma proteins; [1]) was 76%. The “POMGNT1, % change baseline treated” value (plasma proteins; [1]) was 14%, the “PRDX6, % change baseline treated” value (plasma proteins; [1]) was −37% and the “SERPING1, % change baseline treated” value (plasma proteins; [1]) was 4%. For the same compound, the “ST3GAL1, % change baseline treated” value (plasma proteins; [1]) was 5%, the “SUMO3, % change baseline treated” value (plasma proteins; [1]) was −35% and the “TRIM35, % change baseline treated” value (plasma proteins; [1]) was 3%. The “TXN, % change baseline treated” value (plasma proteins; [1]) was −33%, the “WDR81, % change baseline treated” value (plasma proteins; [1]) was 33% and the “GALNT1, GALNT2, GALNT4, and GALNT5 expression” value (plasma proteins; with treatment) was “increase with treatment”.
